Assay results as given in patent US20070117203A1, “Modulation of stem and progenitor cell growth by oscillatory fluid flow” (priority 2005, published 2007).

System: Marrow Stromal Cells (MSCs)
Assay: Intracellular calcium response of MSCs to oscillatory fluid flow in the presence of calcium channel blockers
Conditions: control 67.1±11.2
Experimental: Calcium Imaging: Intracellular levels of Ca^2+ were quantified using a ratiometric imaging technique with the Ca^2+ sensitive dye Fura-2 Acetoxymethyl ester (Fura-2 AM). […] The ratio of the emission intensities F340/F380 is a quantitative measurement of intracellular calcium [Ca^2+]i.
Cells were cultured on UV transparent quartz slides for 3 days. Prior to exposure to OFF, cells were washed with PBS, incubated with 10 μM Fura-2 AM in A-MEM and 2% FBS for 30 min at 37° C., and then washed again with PBS. Following Fura-2 loading, the slides were mounted in a parallel plate flow chamber, and then fixed to the stage of a Nikon TE300 epi-fluorescent microscope (Technical Instruments SF, Burlingame, Calif.). The setup was left undisturbed for 30 min, during which the cells were perfused with media at 0.05 ml/min. Cells were then subjected to 3 minutes of OFF at 1 Hz with peak shear stress of 20 dynes/cm^2. […] Ratio images were recorded and analyzed using image analysis software (Metafluor; Universal Imaging, West Chester, Pa.). […]
Data analysis: Calcium imaging data was analyzed using the Rainflow cycle counting numerical procedure. This method identifies oscillations in the time history data and is used to quantify [Ca^2+]i responses from background noise. Calcium imaging data is expressed as the fraction of cells responding i SE and mean change in [Ca^2+]i±SE. […]

Compound	percentage of cells that responded to OFF with a change in intracellular calcium (50 nM, empties intracellular calcium stores, significant decrease (p<0.05))	percentage of cells that responded to OFF with a change in intracellular calcium (10 μM, stretch activated channel blocker, not different from control)
C/C=C(/C)C(=O)O[C@H]1C(C)=C2[C@H]([C@@H]1OC(=O)CCCCCCC)[C@@](C)(OC(C)=O)C[C@H](OC(=O)CCC)[C@@]1(O)[C@H]2OC(=O)[C@@]1(C)O [Thapsigargin]	0±0%	–
[Cl][Gd]([Cl])[Cl] [gadolinium chloride]	–	61.1±14.7%
